From patent publication US20230203059A1, “MACROCYCLIC JAK INHIBITOR AND USES THEREOF” (Biopolar Hongye (Guangdong) Pharmaceutical Co. Ltd., priority 2020, published 2023) come the findings set out here.

Holding throughout (type): biochemical
In assay [1] the target is JAK1 (Homo sapiens, UniProt P23458). Description: JAK kinase activity, homogeneous time-resolved fluorescence (JAK1 reaction system). To be noted: ATP 2 μM, JAK1 protein 0.2 ng/μL; read-out: JAK 1 activity. The gist of the method:
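Kinase activity read as the 665 nm/615 nm time-resolved fluorescence ratio (320 nm excitation) after EDTA-containing antibody and XL-615 addition. Reaction ran 1 h at pH 7.0 (Hepes, MgCl2, DTT) with 0.2 ng/μL JAK1 and ATP at 2 μM. IC50 derived by Hill-slope fit.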

Assay [2] addresses JAK2 (Homo sapiens, UniProt O60674). Description: JAK kinase activity, homogeneous time-resolved fluorescence (JAK2 reaction system). The note with it: ATP 2 μM, JAK2 protein 0.01 ng/μL. The procedure, abridged: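 IC50 derived by Hill-equation fit of the 665/615 nm time-resolved fluorescence ratio after EDTA-containing detection mix with anti-phosphosubstrate antibody. Preceding 1 h reaction contained 2 μM ATP, 0.01 ng/μL JAK2, substrate, 50 mM Hepes pH 7.0, 5 mM MgCl2, 1 mM DTT.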

In assay [3] the target is T1, JAK3 (Homo sapiens, UniProt P52333).
T1 sequence (P52333 1-1124): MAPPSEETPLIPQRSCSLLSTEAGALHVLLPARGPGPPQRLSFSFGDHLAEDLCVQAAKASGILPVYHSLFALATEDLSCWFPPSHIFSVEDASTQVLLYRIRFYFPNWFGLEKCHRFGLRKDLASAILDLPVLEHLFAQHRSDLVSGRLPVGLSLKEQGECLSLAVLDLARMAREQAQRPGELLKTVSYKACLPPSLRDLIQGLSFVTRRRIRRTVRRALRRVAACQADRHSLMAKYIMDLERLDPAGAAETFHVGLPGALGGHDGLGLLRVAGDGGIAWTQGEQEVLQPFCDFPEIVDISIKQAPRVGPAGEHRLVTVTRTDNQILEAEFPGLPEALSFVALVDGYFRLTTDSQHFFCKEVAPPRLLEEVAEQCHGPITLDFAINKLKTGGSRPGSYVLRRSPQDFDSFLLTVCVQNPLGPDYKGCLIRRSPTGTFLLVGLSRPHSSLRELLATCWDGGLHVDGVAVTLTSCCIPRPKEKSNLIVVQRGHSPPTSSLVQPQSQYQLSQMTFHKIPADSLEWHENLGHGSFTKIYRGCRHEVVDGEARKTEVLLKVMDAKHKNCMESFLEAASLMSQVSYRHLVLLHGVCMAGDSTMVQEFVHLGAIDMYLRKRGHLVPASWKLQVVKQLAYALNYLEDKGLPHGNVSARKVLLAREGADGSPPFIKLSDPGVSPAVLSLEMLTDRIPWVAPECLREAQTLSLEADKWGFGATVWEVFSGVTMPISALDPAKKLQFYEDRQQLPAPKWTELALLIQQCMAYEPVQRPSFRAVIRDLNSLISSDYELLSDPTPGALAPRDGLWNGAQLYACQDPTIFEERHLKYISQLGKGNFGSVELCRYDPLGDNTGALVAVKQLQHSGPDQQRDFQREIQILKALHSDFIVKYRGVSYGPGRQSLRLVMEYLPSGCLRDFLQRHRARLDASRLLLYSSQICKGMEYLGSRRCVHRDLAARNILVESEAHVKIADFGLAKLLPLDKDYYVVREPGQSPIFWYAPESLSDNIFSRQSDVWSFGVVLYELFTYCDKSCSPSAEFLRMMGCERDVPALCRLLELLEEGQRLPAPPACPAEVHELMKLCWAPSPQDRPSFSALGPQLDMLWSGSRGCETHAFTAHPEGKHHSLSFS
Description: JAK kinase activity, homogeneous time-resolved fluorescence (JAK3 reaction system). The note with it: ATP 2 μM, JAK3 protein 0.04 ng/μL; read-out: JAK 3 activity.

Assay [4] has as its target TYK2 (Homo sapiens, UniProt P29597). Description: JAK kinase activity, homogeneous time-resolved fluorescence (TYK2 reaction system). To be noted: ATP 2 μM, TYK2 protein 0.2 ng/μL; read-out: TYK 2 activity. The procedure, abridged: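 Activity read as the 665 nm/615 nm ratio after adding EDTA-containing detection mix with anti-phospho-substrate antibody and XL-615. Beforehand, 0.2 ng/μL TYK2, 2 μM ATP, substrate and compound reacted 1 h in pH 7.0 Hepes buffer with MgCl2 and DTT. IC50 fitted with Hill-slope equation.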

Chain of JAK2 (O60674 whole entry): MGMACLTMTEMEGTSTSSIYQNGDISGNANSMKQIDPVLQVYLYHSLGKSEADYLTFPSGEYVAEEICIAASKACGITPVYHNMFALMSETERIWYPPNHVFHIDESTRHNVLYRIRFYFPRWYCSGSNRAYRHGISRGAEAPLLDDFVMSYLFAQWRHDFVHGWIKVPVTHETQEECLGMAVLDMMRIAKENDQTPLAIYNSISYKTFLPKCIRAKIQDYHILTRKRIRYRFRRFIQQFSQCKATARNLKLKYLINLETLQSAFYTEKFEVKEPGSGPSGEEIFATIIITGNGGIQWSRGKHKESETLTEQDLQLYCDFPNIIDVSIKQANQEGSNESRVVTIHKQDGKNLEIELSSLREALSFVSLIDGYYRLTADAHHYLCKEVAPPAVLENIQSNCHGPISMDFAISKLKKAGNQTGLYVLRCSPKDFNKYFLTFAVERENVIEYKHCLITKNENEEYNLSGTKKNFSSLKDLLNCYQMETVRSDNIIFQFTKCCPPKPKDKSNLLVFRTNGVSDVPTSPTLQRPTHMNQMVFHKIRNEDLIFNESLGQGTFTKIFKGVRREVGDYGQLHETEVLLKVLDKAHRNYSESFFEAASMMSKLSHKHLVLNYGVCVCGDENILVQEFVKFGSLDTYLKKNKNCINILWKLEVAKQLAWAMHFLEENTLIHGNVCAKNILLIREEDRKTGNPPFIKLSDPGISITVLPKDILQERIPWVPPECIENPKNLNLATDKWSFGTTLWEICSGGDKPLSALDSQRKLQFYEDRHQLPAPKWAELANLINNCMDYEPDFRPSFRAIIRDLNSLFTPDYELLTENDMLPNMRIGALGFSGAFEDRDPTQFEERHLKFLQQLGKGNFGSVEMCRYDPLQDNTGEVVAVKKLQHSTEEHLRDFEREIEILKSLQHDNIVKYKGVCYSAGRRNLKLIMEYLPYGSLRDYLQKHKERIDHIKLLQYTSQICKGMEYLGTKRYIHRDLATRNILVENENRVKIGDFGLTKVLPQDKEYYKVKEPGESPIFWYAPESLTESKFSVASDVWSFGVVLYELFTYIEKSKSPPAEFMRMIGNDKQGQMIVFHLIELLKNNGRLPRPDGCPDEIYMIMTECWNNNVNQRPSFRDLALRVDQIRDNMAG
Chain of TYK2 (P29597 whole entry): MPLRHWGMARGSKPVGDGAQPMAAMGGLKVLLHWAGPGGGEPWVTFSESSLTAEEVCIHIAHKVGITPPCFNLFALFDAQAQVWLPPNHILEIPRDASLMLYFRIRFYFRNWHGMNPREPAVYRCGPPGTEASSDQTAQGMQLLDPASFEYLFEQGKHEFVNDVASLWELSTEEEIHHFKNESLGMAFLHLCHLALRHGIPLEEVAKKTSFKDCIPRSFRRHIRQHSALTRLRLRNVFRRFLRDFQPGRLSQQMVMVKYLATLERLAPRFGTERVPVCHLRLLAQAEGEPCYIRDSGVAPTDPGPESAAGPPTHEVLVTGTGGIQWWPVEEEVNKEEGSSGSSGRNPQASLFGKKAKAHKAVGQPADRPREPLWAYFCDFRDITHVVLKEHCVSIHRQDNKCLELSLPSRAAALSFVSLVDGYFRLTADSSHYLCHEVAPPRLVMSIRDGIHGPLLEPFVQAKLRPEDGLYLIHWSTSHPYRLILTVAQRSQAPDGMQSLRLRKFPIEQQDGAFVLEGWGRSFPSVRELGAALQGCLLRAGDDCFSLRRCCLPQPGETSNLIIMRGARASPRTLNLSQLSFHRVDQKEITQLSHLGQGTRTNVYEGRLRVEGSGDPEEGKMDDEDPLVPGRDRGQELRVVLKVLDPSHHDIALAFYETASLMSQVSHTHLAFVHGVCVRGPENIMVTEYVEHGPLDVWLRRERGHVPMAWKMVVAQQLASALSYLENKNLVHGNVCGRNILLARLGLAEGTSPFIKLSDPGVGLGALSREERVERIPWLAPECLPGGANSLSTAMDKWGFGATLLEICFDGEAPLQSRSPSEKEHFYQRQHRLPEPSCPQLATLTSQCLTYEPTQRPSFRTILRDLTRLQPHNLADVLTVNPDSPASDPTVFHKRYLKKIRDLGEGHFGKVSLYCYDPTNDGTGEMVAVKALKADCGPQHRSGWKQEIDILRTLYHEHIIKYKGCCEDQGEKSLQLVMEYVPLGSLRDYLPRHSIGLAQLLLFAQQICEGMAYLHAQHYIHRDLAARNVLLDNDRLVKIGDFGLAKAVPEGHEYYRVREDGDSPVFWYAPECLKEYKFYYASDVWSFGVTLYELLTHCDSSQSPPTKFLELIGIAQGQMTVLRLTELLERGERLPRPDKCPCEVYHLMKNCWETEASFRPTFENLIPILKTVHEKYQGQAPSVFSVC
Chain of JAK1 (P23458 whole entry): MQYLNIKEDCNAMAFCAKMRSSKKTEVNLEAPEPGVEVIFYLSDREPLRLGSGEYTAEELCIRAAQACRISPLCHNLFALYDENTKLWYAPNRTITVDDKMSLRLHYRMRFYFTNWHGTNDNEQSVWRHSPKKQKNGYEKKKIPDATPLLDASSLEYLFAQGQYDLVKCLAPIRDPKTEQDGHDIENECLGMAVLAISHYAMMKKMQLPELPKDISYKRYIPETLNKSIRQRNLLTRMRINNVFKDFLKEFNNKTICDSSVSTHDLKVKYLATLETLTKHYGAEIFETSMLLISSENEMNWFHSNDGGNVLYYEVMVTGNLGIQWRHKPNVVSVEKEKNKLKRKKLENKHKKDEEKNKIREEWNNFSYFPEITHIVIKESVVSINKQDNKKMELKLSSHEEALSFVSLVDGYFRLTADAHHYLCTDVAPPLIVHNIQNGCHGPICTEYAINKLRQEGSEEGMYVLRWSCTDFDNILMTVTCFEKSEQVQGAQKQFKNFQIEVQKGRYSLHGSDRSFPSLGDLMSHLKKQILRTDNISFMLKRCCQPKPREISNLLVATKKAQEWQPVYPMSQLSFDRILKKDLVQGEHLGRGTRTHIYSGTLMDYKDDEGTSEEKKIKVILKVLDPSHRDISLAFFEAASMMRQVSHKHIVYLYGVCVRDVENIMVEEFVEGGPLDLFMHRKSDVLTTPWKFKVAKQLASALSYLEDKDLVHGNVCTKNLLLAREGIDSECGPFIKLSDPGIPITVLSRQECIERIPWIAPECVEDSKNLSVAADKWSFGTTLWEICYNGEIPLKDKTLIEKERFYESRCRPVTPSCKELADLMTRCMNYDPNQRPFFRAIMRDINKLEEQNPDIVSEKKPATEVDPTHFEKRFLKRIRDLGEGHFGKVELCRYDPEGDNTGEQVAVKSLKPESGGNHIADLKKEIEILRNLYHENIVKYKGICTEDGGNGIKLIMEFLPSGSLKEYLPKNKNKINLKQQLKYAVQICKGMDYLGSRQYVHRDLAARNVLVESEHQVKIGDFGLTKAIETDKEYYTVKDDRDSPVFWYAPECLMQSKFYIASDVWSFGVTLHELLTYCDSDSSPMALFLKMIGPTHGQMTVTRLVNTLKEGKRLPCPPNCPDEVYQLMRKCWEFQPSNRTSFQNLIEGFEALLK

In the case of `COc1ccc(F)cc1COc1ccc2cc1COCCCCNC(=O)c1ccc(c(N)c1)-c1ccnc(n1)N2` [Example 177, 1^2-amino-4^4-((5-fluoro-2-methoxy-benzyl)oxy)-6-oxa-3,11-diaza-2(4,2)-pyrimidina-1(1,4),4(1,3)-dibenz-enacyclododecaphan-12-one], the IC50 in assay [1] is 1 to 10 µM; in assay [2] it was 1 to 10 µM; in assay [3], 0.101 to 1 µM; in assay [4], > 10 µM.

On to `CC1CCOCc2cc(ccc2OC(C)C)Nc2nccc(n2)-c2ccc(cc2N)C(=O)NC1` (stereo not shown) [Example 178, 1^2-amino-4^4-isopropoxy-9-methyl-6-oxa-3,11-diaza-2(4,2)-pyrimidin-a-1(1,4)4(1,3)-dibenzenacyclododeca-phan-12-one], for which the IC50 is 0.101 to 1 µM in assay [1], 0.011 to 0.1 µM in assay [2], < 0.01 µM in assay [3] and 0.101 to 1 µM in assay [4].

For the compound `CN(C)C(=O)C(C)(C)Oc1ccc2cc1COCCCCNC(=O)c1ccc(c(N)c1)-c1ccnc(n1)N2` [Example 179, 2-((1^2-amino-12-oxo-6-oxa-3,11-di-aza-2(4,2)-pyrimidina-1(1,4),4(1,3)-dibenzenacyclododecaphan-4^4-yl)oxy)-N,N-trimethylpropoiona-mide], the IC50 in assay [1] was 1 to 10 µM; in assay [2], 1 to 10 µM; in assay [3], 0.101 to 1 µM; in assay [4], > 10 µM.

`C[C@H]1CCOCc2cc(ccc2OC2CC2)Nc2nccc(n2)-c2ccc(cc2N)C(=O)NC1` [Example 180, (S)-1^2-amino-4^4-cyclopropoxy-9-methyl-6-oxa-3,11-diaza-2(4,2)-py-rimidina-1(1,4),4(1,3)-dibenzena-cyclododecaphan-12-one]: the IC50 in assay [1] is 1 to 10 µM; in assay [2], 0.101 to 1 µM; in assay [3], 0.011 to 0.1 µM; in assay [4] it was 1 to 10 µM.

Consider `C[C@@H]1CCOCc2cc(ccc2OC2CC2)Nc2nccc(n2)-c2ccc(cc2N)C(=O)NC1` [Example 181, (R)-1^2-amino-4^4-cyclopropxy-9-methyl-6-ox-3,11-diaza-2 (4,2)-pyrimidina-1(1,4),4(1,3)-di-benzenacyclododecaphan-12-one], for which the IC50 was 0.101 to 1 µM in assay [1], 0.011 to 0.1 µM in assay [2], < 0.01 µM in assay [3] and 0.101 to 1 µM in assay [4].

Consider `COc1cccc(F)c1COc1ccc2cc1COCCC(C)CNC(=O)c1ccc(c(N)c1)-c1ccnc(n1)N2` (stereo not shown) [Example 182, 1^2-amino-4^4-((2-fluoro-6-methoxy-benzyl)oxy)-9-methyl-6-oxa-3,11-diaza-2(4,2)-pyrimidina-1(1,4),4(1,3)-dibenzenacyclododecaphan-12-one], for which the IC50 in assay [1] was 1 to 10 µM; in assay [2], 0.101 to 1 µM; in assay [3], < 0.01 µM; in assay [4], 1 to 10 µM.

As to `COc1cc(F)cc(F)c1COc1ccc2cc1COCCCCNC(=O)c1ccc(c(N)c1)-c1ccnc(n1)N2` [Example 183, 1^2-amino-4^4-((2,4-difluoro-6-meth-oxybenzyl)oxy)-6-oxa-3,11-diaza-2(4,2)-pyrimidina-1(1,4),4(1,3)-di-benzenacyclododecaphan-12-one], the IC50 is 1 to 10 µM in assay [1], 0.101 to 1 µM in assay [2], < 0.01 µM in assay [3] and 1 to 10 µM in assay [4].

Consider `CC1CCOCc2cc(ccc2OC2CCCC2)Nc2nccc(n2)-c2ccc(cc2N)C(=O)NC1` (stereo not shown) [Example 184, 1^2-amino-4^4-(cyclopentoxy)-9-meth-yl-6-oxa-3,11-diaza-2(4,2)-pyrimi-dina-1(1,4),4(1,3)-dibenzenacyclo-dodecaphan-12-one], for which the IC50 in assay [1] was 1 to 10 µM; in assay [2], 0.101 to 1 µM; in assay [3], < 0.01 µM; in assay [4], 1 to 10 µM.

Regarding `C[C@@H]1CCOCc2cc(ccc2OC2CCCC2)Nc2nccc(n2)-c2ccc(cc2N)C(=O)NC1` [Example 185, (R)-1-amino-4^4-(cyclopentoxy)-9-methyl-6-oxa-3,11-diaza-2(4,2)-py-rimidina-1(1,4),4(1,3)-dibenzena-cyclododecaphan-12-one], the IC50 in assay [1] was in the range of 1 to 10 µM; in assay [2], 0.101 to 1 µM; in assay [3] it was 0.011 to 0.1 µM; in assay [4], 1 to 10 µM.

With `COc1cccc(F)c1COc1ccc2cc1COCC[C@@H](C)CNC(=O)c1ccc(c(N)c1)-c1ccnc(n1)N2` [Example 186, (R)-1^2-amino-4^4-((2-fluoro-6-meth-oxybenzyl)oxy)-9-methyl-6-oxa-3,11-diaza-2(4,2)-pyrimidina-1(1,4),4(1,3)-dibenzenacyclododecaphan-12-one], the IC50 in assay [1] is 1 to 10 µM; in assay [2], 0.101 to 1 µM; in assay [3], < 0.01 µM; in assay [4] it was 1 to 10 µM.

In the case of `CC(C)Oc1ccc2cc1COCC[C@@H](C)CNC(=O)c1ccc(c(N)c1)-c1ccnc(n1)N2` [Example 187, (R)-1^2-amino-4^4-isopropoxy-9-meth-yl-6-oxa-3,11-diaza-2(4,2)-pyri-midina-1(1,4),4(1,3)-dibenzenacyclo-dodecaphan-12-one], the IC50 was 0.101 to 1 µM in assay [1], 0.011 to 0.1 µM in assay [2], 0.011 to 0.1 µM in assay [3] and 0.101 to 1 µM in assay [4].

For `COc1cc(F)cc(F)c1COc1ccc2cc1COCC[C@@H](C)CNC(=O)c1ccc(c(N)c1)-c1ccnc(n1)N2` [Example 188, (R)-1^2-amino-4^4-((2,4-difluoro-6-methoxybenzyl)oxy)-9-methyl-6-o-xa-3,11-diaza-2(4,2)-pyrimidina-1(1,4),4(1,3)-dibenzenacyclo-dodecaphan-12-one], the IC50 lay within 1 to 10 µM in assay [1], 0.101 to 1 µM in assay [2], 0.011 to 0.1 µM in assay [3] and 1 to 10 µM in assay [4].

For the compound `CC(C)Oc1ccc2cc1COCC[C@H](C)CNC(=O)c1ccc(c(N)c1)-c1ccnc(n1)N2` [Example 189, (S)-1^2-amino-4^4-isopropoxy-9-meth-yl-6-oxa-3,11-diaza-2(4,2)-pyrimi-dina-1(1,4),4(1,3)-dibenzenacyclo-dodecaphan-12-one], the IC50 was 0.101 to 1 µM in assay [1], 0.101 to 1 µM in assay [2], 0.011 to 0.1 µM in assay [3] and > 10 µM in assay [4].

For `C[C@H]1CCOCc2cc(ccc2OC2CCCC2)Nc2nccc(n2)-c2ccc(cc2N)C(=O)NC1` [Example 190], the IC50 lay within 1 to 10 µM in assay [1], 0.101 to 1 µM in assay [2], 0.011 to 0.1 µM in assay [3] and 1 to 10 µM in assay [4].

In the case of `COc1cc(F)cc(F)c1COc1ccc2cc1COCC[C@H](C)CNC(=O)c1ccc(c(N)c1)-c1ccnc(n1)N2` [Example 191, (S)-1^2-amino-4^4-((2,4-difluoro-6-methoxybenzyl)oxy)-9-methyl-6-x-xa-3,11-diaza-2(4,2)-pyrimidina-1(1,4),4(1,3)-dibenzenacyclo-dodecaphan-12-one], the IC50 in assay [1] lay in the range of 1 to 10 µM; in assay [2], 1 to 10 µM; in assay [3], 0.101 to 1 µM; in assay [4] it was 1 to 10 µM.

As for `COc1cccc(F)c1COc1ccc2cc1COCC[C@H](C)CNC(=O)c1ccc(c(N)c1)-c1ccnc(n1)N2` [Example 192, (S)-1^2-amino-4^4-((2-fluoro-6-meth-oxybenzyl)oxy)-9-methyl-6-oxa-3,11-diaza-2(4,2)-pyrimidina-1(1,4),4(1,3)-dibenzenacyclo-dodecaphan-12-one], the IC50 is 1 to 10 µM in assay [1], 1 to 10 µM in assay [2], 0.101 to 1 µM in assay [3] and > 10 µM in assay [4].
